The target of this experiment is TMV-CP (tobacco mosaic virus coat protein) (Tobacco mosaic virus (vulgare), UniProt P69687). The experiment in a line: microscale thermophoresis. The format is binding.

The record followed here is publication PMC8600648 (ACS Omega, 2021).

Chain of TMV-CP (tobacco mosaic virus coat protein) (P69687 2-159 limits assumed): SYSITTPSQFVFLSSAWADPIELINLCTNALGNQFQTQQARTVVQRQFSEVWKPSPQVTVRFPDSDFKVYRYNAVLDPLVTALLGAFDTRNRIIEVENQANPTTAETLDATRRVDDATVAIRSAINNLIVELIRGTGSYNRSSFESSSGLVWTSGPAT

On to `O=c1c(O)c(-c2cc(O)c(O)c(O)c2)oc2cc(O)cc(O)c12` [myricetin, 3,5,7-trihydroxy-2-(3′,4′,5′-trihydroxyphenyl)-4H-chromen-4-one], for which the Kd is 62.2 ± 22.2 µM.
